Consider 3 compounds from patent US20090186929A1, “Method and agent for inducing apoptosis/cell death in leukemia cells” (U.S. DEPARTMENT OF VETERANS AFFAIRS, priority 2003, published 2009).

The test system of data set [1] is CLL cells. As to the kind of experiment: Cytotoxicity of NOS inhibitors for CLL cells in vitro (PI exclusion assay). The note with it: Homo sapiens, CLL cell, read-out: Mean ED50 ± S.E.M. (CLL cell cytotoxicity). Format: cell-based.
Description: Toxicity could be detected by disappearance of cells from the culture (reduction in overall cell number), uptake of trypan blue, propidium iodide uptake (flow cytometry), MTS (4,5-dimethylthiazol-2-yl)-5-(3-carboxymethoxyphenyl)-2-(4-sulfophenyl)-2H-tetrazolium, inner salt) assay (cellular respiration), and several parameters of apoptosis [annexin V assay, DNA content (<in), and TUNEL assay].
Data set [2] concerns the target T1, purified recombinant rat NOS1 oxygenase domain (Rattus norvegicus, UniProt P29476).
T1 construct: purified recombinant rat NOS1 oxygenase domain
The data set is described as follows: NOS inhibitor binding (Kd) to NOS1.

In data set [3] the target is T2, purified recombinant human NOS2 oxygenase domain (Homo sapiens, UniProt P35228).
T2 construct: purified recombinant human NOS2 oxygenase domain
As to the kind of experiment: NOS inhibitor binding (Kd) to NOS2. Here is the method: […] The cLogP value for each NOS inhibitor was determined using the CLOGP computer program (BioByte, Claremont, Calif.). […] Linear regression was used to examine the correlation between the IC50, Kd and cLogP values and ED50 values.
We determined the dissociation constant for NOS inhibitor binding (Kd) to purified recombinant and NOS2.

For another data set, the system named is HL-60 and U937 cells. As to the kind of experiment: NO donor inhibition of leukemia cell and colony growth. Format: cell-based, human. An excerpt: To more closely examine the mechanism of toxicity for myeloid leukemia cells, we did work to determine whether the rate of NO delivery affected its growth inhibition of acute nonlymphocytic leukemia cells. We also wanted to determine whether the NO inhibition of cell growth is associated induction of apoptosis. We treated HL-60 and U937 cells with three compounds that generate the same amount of NO but different rates. […] Furthermore, NO-induced growth inhibition was associated with apoptosis in a rate and concentration-dependent fashion (Reference 39).

For data set [4], the system named is freshly-isolated CLL cells. The data set is described as follows: Exogenous NO donors and drugs on freshly-isolated CLL cells (apoptosis and death). It is filed as cell-based, human. The note with it: combination with fludarabine. The text has this:
We next wanted to examine CLL cells. These malignant cells differ in many ways from ANLL and normal hematopoietic. In addition to their different lineage, they are unique in that they have a very low […], exist primary in the G0 phase of the cell cycle, and have defective apoptosis.

Data set [5] relates to CLL cells. As to the kind of experiment: Cytotoxicity of NOS inhibitors for CLL cells in vitro (MTS assay). The settings on record: cytotoxicity for CLL cells in vitro. An excerpt:
We worked to optimize the culture of CLL cells (Reference 86). […] These were all tested with and without albumin, fetal bovine serum, human serum, glutamine, insulin, transferrin, selenium, and mercaptoethanol.
Toxicity could be detected by disappearance of cells from the culture (reduction in overall cell number), uptake of trypan blue, propidium iodide uptake (flow cytometry), MTS (4,5-dimethylthiazol-2-yl)-5-(3-carboxymethoxyphenyl)-2-(4-sulfophenyl)-2H-tetrazolium, inner salt) assay (cellular respiration), and several parameters of apoptosis [annexin V assay, DNA content […], and TUNEL assay].

For data set [6] the following is noted: normals, trials for septic shock and migraine; cited from earlier work.
Data set [7] relates to CLL cells. The data set is described as follows: CLL cell apoptosis (TUNEL assay). It is filed as cell-based, human. The settings on record: CLL cells in vitro. Here is the method: Culture of cells with IL-4 or IFN-γ (but not TNF-α, IL-2, IL-6, IL-8, G-CSF, nerve growth factor, or IFN-α) increased NO production. By quantitative RT-PCR, IL-4 increased NOS2 mRNA (FIG. 8). Also, 5 of 5 patients' CLL cells had increases in NOS2 protein (immunoblot) after in vitro treatment with IL-4. Apoptosis (TUNEL assay) was induced by NMMA treatment of the cells, and incubating cells with IL-4 or IFN-y reduced apoptosis. […] Since IL-4 and IFN-gamma induce NOS2 and modulate CD38 expression in CLL cells in vitro, we sought to determine if CLL patients had elevated levels of these cytokines and if the levels related to CD38 expression by the leukemia cells (Reference 87).

T1 sequence (P29476 1-720 limits assumed): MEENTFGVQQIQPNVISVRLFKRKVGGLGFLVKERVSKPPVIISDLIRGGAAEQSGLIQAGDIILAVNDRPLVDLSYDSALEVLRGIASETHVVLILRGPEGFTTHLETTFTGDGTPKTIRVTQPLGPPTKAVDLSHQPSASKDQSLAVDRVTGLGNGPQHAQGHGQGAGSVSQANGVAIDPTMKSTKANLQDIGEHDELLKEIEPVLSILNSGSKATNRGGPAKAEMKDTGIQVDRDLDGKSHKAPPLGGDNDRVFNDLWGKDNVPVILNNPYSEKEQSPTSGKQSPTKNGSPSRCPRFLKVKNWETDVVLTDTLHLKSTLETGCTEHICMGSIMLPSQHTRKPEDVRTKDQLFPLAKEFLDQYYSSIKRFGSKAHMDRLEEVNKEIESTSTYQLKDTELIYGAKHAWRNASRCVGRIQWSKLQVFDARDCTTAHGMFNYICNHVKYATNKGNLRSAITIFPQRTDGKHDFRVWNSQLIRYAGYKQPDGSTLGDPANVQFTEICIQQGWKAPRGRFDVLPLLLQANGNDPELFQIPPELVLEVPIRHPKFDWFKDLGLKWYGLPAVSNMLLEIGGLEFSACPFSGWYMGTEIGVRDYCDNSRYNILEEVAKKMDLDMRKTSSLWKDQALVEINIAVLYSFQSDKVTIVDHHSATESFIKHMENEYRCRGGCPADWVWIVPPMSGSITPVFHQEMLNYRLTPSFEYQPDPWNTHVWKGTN
T2 sequence (P35228 1-504 limits assumed): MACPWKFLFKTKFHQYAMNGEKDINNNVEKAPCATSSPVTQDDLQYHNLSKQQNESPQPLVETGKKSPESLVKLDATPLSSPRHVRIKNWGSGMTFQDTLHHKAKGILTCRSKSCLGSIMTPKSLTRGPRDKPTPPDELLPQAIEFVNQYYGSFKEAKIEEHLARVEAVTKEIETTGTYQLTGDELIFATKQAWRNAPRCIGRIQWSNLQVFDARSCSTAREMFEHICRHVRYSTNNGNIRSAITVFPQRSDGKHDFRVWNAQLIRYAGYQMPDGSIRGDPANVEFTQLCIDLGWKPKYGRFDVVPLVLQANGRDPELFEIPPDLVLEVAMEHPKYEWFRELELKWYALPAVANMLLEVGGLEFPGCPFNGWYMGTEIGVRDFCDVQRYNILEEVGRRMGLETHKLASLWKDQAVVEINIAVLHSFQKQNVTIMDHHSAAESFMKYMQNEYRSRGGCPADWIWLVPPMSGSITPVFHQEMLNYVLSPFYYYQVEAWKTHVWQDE

For orientation: Kd means a measure of binding affinity in units of concentration. `C=CCC(=N)NCCC[C@H](N)C(=O)O` [Vinyl-L-NIO, N^5-(1-Imino-3-butenyl)-L-ornithine]: in the data set on CLL cells [1], the EC50 stood at 1190 ± 456 µM. Besides, the equilibrium dissociation constant (Kd) in data set [2] stood at 0.1 µM; in data set [3], 0.5 µM.

Regarding `NCCN(CCN)/[N+]([O-])=N/O` [DETA-NO, (Z)-1-[N-(2-aminoethyl)-N-(2-ammonioethyl)amino]diazen-1-ium-1,2-diolate-NO], the “Inhibition of leukemia cell and colony growth” value with HL-60 and U937 cells is “most potent inhibitor”. In data set [4], the “Interaction of DETA-NO with fludarabine in killing CLL cells” value is recorded as “acted synergistically”.

Consider `CC(=O)O.CNC(=N)NCCC[C@H](N)C(=O)O` [L-NMMA, N^G-Monomethyl-L-arginine monoacetate], for which the “ED50 ranking, FIG. 10” value in the data set with CLL cells [5] was “very high ED50”. Also, the “Effects on cardiovascular, liver, or hematopoietic function” value in data set [6] is listed as “no major effects”. Besides, the “Apoptosis (TUNEL assay)” value in the data set on CLL cells [7] was “induced”.
